# “Also recorded” adds a separate entry of the source.
# Tested on: Human dermal fibroblasts
# Assay: Hyaluronic acid (HA) secretion by human dermal fibroblasts, Hyaluronan ELISA of culture media
# Assay type: cell-based
# Conditions: for Synergy of active with red and/or near infrared light in hyaluronic acid production: combination of active and light versus light alone; for Fold Change versus treatment with light alone: net HA
# Description: Human dermal fibroblasts are maintained in flask in growth medium consisting of Dulbeccos' Modified Eagle Medium (DMEM) plus 10% fetal bovine serum, 50 units/ml penicillin and 50 μg/ml streptomycin. Cells are seeded at 10,000 cells per well in a 96 well plate in phenol-red-free Dulbeccos' Modified Eagle Medium (DMEM) plus 2% fetal bovine serum, 50 units/ml penicillin and 50 μg/ml streptomycin for 24 hours before the treatments. Glucosamine HCl or other actives were dissolved in 1×PBS at 10% stock and added into the medium at various concentrations for 48 hours. Culture media is collected at 48 hours post-treatment, and measured for HA (Hyaluronic acid) secretion using Hyaluronan ELISA kit (Echelon, cat. #K-1200) following the manufacturer protocol. To assess activity, the colorimetric chance is measured at 405 nm. The net HA secretion of each tested treatment is calculated by the amount of the HA secretion from each respective individual treatment minus the amount of the HA secretion from the untreated treatment. Then, the fold increase provided by the combination of the treatments by light+active is calculated as the fold change in net HA secreted from the application of the combined light plus active treatment divided by the net HA secreted from the treatment by light alone. […]
# [1] = 0.02% active alone in cell media, no light, 48 hours
# [2] = Red (633 nm) + NIR (830 nm) light 0.3 J/cm^2 each + 0.02% active
# [3] = Red + NIR light 0.3 J/cm^2 each + 0.02% active
# [4] = Red + NIR light 0.3 J/cm^2 each + 0.2% active
# [5] = Red + NIR light 3 J/cm^2 each + 0.02% active
# [6] = Red + NIR light 3 J/cm^2 each + 0.2% active
Structure (SMILES),HA concentrations [1] [ng/mL],"Change in HA concentration over Untreated (0.02% active alone, no light) [ng/mL]",HA concentrations [2] [ng/mL],Change in HA concentration over Untreated [3],Fold Change versus treatment with light alone [3],Synergy of active with red and/or near infrared light in hyaluronic acid production,further results
"Cl.N[C@H]1C(O)O[C@H](CO)[C@@H](O)[C@@H]1O (some centres unmarked) [Glucosamine HCl, glucosamine hydrochloride]",543,-8,2489,+1938 ng/ml,2.25,,"HA concentrations (0.2% active alone in cell media, no light, 48 hours): 999 ng/mL; Change in HA concentration over Untreated (0.2% active alone, no light): +448 ng/ml; HA concentrations (Red (633 nm) + NIR (830 nm) light 0.3 J/cm^2 each + 0.2% active): 2260 ng/mL; HA concentrations (Red (633 nm) + NIR (830 nm) light 3 J/cm^2 each + 0.02% active): 4379 ng/mL; HA concentrations (Red (633 nm) + NIR (830 nm) light 3 J/cm^2 each + 0.2% active): 3873 ng/mL; Change in HA concentration over Untreated [4]: +1709 ng/ml; Change in HA concentration over Untreated [5]: +3828 ng/ml; Change in HA concentration over Untreated [6]: +3322 ng/ml; Synergy of active with red and/or near infrared light in hyaluronic acid production (listed as glucosamine HCl, hydrochloride): synergistically increased the hyaluronic acid secretion; Synergy of active with red and/or near infrared light in hyaluronic acid production (listed as glucosamine hydrochloride, hydrochloride): synergistically increases hyaluronic acid production; Fold Change versus treatment with light alone [4]: 1.98; Fold Change versus treatment with light alone [5]: 2.99; Fold Change versus treatment with light alone [6]: 2.60"
"N[C@H]1C(O)O[C@H](CO)[C@@H](O)[C@@H]1O.O=P(O)(O)O (some centres unmarked) [Glucosamine phosphate, reference compound]",689,-51,1037,297 ng/mL,0.36,,"Synergy of active with red and/or near infrared light in hyaluronic acid production (listed as glucosamine phosphate, phosphate): not observed; Synergy of active with red and/or near infrared light in hyaluronic acid production (phosphate): No synergy was observed"
"CC(=O)N[C@H]1C(O)O[C@H](CO)[C@@H](O)[C@@H]1O (some centres unmarked) [N-acetyl Glucosamine, N-acetyl glucosamine, reference compound]",735,-125,1878,1018 ng/mL,1.1,No synergy was observed; also recorded: not observed,
N[C@H]1C(O)O[C@H](CO)[C@@H](O)[C@@H]1O (some centres unmarked) [glucosamine],,,,,,not observed,
